Experimental data: patent publication US20260138961A1, “MODULATORS OF MITOCHONDRIAL DNA REPLICATION” (Pretzel Therapeutics, Inc., priority 2022, published 2026)

Biological target: T1, wild type human POLγ (POLγA:WT) (Homo sapiens, UniProt P54098)
T1 sequence (P54098 1-1239): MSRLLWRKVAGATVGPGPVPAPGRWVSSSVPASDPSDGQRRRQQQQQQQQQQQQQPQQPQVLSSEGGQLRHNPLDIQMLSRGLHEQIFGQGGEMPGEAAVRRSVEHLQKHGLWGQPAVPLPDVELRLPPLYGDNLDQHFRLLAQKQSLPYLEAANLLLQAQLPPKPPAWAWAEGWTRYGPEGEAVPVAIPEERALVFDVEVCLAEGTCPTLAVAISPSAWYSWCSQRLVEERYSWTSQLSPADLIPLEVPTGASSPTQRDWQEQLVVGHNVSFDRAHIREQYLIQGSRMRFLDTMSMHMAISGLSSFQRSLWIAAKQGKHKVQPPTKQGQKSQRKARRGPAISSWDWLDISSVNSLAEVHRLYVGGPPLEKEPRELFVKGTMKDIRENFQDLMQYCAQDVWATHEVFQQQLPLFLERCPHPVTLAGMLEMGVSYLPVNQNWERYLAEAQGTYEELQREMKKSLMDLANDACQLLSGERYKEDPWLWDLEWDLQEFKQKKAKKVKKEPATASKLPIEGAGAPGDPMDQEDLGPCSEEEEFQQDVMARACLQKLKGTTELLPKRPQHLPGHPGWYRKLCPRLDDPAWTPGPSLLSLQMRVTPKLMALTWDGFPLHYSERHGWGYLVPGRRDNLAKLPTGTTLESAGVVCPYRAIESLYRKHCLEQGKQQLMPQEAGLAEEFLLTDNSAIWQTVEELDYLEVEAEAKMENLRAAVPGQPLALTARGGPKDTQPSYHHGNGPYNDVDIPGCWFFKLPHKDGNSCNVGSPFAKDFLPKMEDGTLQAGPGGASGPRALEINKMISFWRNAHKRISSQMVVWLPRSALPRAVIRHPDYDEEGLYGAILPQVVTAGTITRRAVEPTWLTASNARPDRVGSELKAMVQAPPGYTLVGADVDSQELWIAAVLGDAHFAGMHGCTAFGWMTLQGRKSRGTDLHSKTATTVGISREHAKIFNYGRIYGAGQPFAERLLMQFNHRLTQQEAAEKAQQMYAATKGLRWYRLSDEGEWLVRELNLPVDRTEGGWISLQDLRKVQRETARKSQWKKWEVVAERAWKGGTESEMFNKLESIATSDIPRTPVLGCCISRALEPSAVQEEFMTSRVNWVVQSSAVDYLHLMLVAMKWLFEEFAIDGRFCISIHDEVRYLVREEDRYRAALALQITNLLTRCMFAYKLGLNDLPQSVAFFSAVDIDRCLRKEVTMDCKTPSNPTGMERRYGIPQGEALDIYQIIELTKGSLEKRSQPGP
T1 sequence (Q9UHN1 1-485 partner): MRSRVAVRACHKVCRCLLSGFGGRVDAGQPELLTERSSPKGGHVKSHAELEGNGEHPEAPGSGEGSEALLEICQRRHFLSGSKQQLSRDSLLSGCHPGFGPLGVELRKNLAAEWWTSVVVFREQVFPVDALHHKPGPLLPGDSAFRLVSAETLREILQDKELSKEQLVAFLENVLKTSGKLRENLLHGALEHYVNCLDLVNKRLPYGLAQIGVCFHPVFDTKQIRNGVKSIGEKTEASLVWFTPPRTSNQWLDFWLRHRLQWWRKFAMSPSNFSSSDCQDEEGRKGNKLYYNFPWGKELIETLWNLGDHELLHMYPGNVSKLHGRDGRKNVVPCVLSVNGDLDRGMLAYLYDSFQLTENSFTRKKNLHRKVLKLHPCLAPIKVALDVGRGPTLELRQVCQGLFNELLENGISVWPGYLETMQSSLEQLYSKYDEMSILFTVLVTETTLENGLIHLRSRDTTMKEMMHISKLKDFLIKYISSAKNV
Assay: DNA polymerization assay, wild type POLγ
Type: biochemical
Settings: 100 μM dNTP, read-out: WT AC50 (μM) at 100 μM

Row | SMILES | AC50 [µM]
1 | Cc1cc(S(=O)(=O)Nc2csc(C3CCOCC3)n2)c(C)cc1Cl [Example 167, 4-chloro-2,5-dimethyl-N-(2-(tetrahydro-2H-pyran-4-yl)thiazol-4-yl)benzenesulfonamide] | 4
2 | Cc1cc(S(=O)(=O)Nc2cn(Cc3ccccc3)cn2)c(C)cc1Cl [Example 168, N-(1-benzyl-1H-imidazol-4-yl)-4-chloro-2,5-dimethylbenzenesulfonamide] | > 10
3 | Cc1cc(S(=O)(=O)Nc2cn(-c3ccccc3)cn2)c(C)cc1Cl [Example 169, 4-chloro-2,5-dimethyl-N-(1-phenyl-1H-imidazol-4-yl)benzenesulfonamide] | > 10
4 | Cc1cc(S(=O)(=O)Nc2cnn(-c3ccccc3)n2)c(C)cc1Cl [Example 171, 4-chloro-2,5-dimethyl-N-(2-phenyl-2H-1,2,3-triazol-4-yl)benzenesulfonamide] | 5
5 | Cc1cc(S(=O)(=O)Nc2csc(C(=O)N(C)CC(N)=O)n2)c(C)cc1Cl [Example 172, N-(2-amino-2-oxoethyl)-4-((4-chloro-2,5-dimethylphenyl)sulfonamido)-N-methylthiazole-2-carboxamide] | > 100
6 | Cc1cc(S(=O)(=O)Nc2csc(C(=O)N3CCC[C@H]3C)n2)c(C)cc1Cl [Example 174, (R)-4-chloro-2,5-dimethyl-N-(2-(2-methylpyrrolidine-1-carbonyl)thiazol-4-yl)benzenesulfonamide] | 0.1
7 | Cc1cc(S(=O)(=O)Nc2csc(-c3ccncc3)n2)c(C)cc1Cl [Example 176, 4-chloro-2,5-dimethyl-N-(2-(pyridin-4-yl)thiazol-4-yl)benzenesulfonamide] | > 100
8 | Cc1cc(S(=O)(=O)Nc2csc(C(=O)N(CC(N)=O)C3CCCCC3)n2)c(C)cc1Cl [Example 179, N-(2-amino-2-oxoethyl)-4-((4-chloro-2,5-dimethylphenyl)sulfonamido)-N-cyclohexylthiazole-2-carboxamide] | > 10
9 | Cc1cc2cc(NS(=O)(=O)c3cc(C)c(Cl)cc3C)ccc2[nH]1 [Example 184, 4-chloro-2,5-dimethyl-N-(2-methyl-1H-indol-5-yl)benzenesulfonamide] | > 100

Second part, the molecule after the results:

Row | AC50 [µM] | SMILES
10 | > 10 | Cc1cc(S(=O)(=O)Nc2cn(C)c(-c3ccccc3)n2)c(C)cc1Cl [Example 170, 4-chloro-2,5-dimethyl-N-(1-methyl-2-phenyl-1H-imidazol-4-yl)benzenesulfonamide]
11 | 0.2 | Cc1cc(S(=O)(=O)Nc2csc(-c3ccccn3)n2)c(C)cc1Cl [Example 173, 4-chloro-2,5-dimethyl-N-(2-(pyridin-2-yl)thiazol-4-yl)benzenesulfonamide]
12 | 3 | Cc1cc(S(=O)(=O)Nc2csc(C(=O)N3CCC[C@@H]3C)n2)c(C)cc1Cl [Example 175, (S)-4-chloro-2,5-dimethyl-N-(2-(2-methylpyrrolidine-1-carbonyl)thiazol-4-yl)benzenesulfonamide]
13 | > 100 | Cc1cc(S(=O)(=O)Nc2csc(C(=O)N(CC(N)=O)C3CCCC3)n2)c(C)cc1Cl [Example 177, N-(2-amino-2-oxoethyl)-4-((4-chloro-2,5-dimethylphenyl)sulfonamido)-N-cyclopentylthiazole-2-carboxamide]
14 | > 100 | Cc1cc(S(=O)(=O)Nc2csc(-n3cccn3)n2)c(C)cc1Cl [Example 178, N-(2-(1H-pyrazol-1-yl)thiazol-4-yl)-4-chloro-2,5-dimethylbenzenesulfonamide]
15 | > 10 | Cc1cc(S(=O)(=O)Nc2nc(-c3ccccc3)n(C)n2)c(C)cc1Cl [Example 180, 4-chloro-2,5-dimethyl-N-(1-methyl-5-phenyl-1H-1,2,4-triazol-3-yl)benzenesulfonamide]
16 | > 10 | Cc1cc(S(=O)(=O)Nc2csc(-c3ccn(C)n3)n2)c(C)cc1Cl [Example 181, 4-chloro-2,5-dimethyl-N-(2-(1-methyl-1H-pyrazol-3-yl)thiazol-4-yl)benzenesulfonamide]
